Measured values as given in patent US20230172936A1, “VCP/p97 INHIBITOR FOR THE TREATMENT OF CANCER” (Cleave Therapeutics, Inc., priority 2020, published 2023).
Read-outs that look alike come from different tables or passages of the source.

Columns and labels:
MOML-13 = assay: Combination Index (Chou-Talalay) of Compound 1 with additional therapeutic agents; assay type: cell-based, human; conditions: for Combination Index of Compound 1 + agent: MOML-13, CI scores across all 3 ratios averaged; for action of the combination with Compound 1 (synergistic, additive, antagonistic): MOML-13 (FLT3 heterozygous, BRCA2 mutant)
Experimental: (§1) Each combination was tested in 3 cell lines: MOML-13 (Human Acute Myeloid Leukemia cell line; Addex Bio), MV-4-11 (Human B Myelomoncytic Leukemia cell line; ATCC), and OCI-AML-3 (Human Acute Myeloid Leukemia cell line).
(§2) Within this range, 20 dose levels were tested for each combination, with each response determined in duplicate. […] The actual drug concentrations in the ratios were determined from the IC50 values obtained for each individual drug.
(§3) Raw data was analyzed using Graph Pad Prism, four parameter logistic fits, and Chou-Talalay drug combination analyses. […] For data points with Fe<0, the fractional effect was set to 0.001. Data points with Fe>0.99 or <0.01 were omitted from the Chou-Talalay analysis because the Chou-Talalay analysis fits data to the Log of the fractional effect, with equal weight applied across the range of effect, such that the high and low end of the dose response, very small changes in effect within the range of experimental error erroneously skew the outcome of the model fit.
(§4) A Combination Index (CI) vs Fractional Effect plot showing the actual combination index plotted vs Fractional effect value was plotted for each combination dose. In this analysis, CI=1 represents additive activity, CI>1 represent less than additive activity (often referred to as antagonism) and CI<1=synergistic activity (better than additive).

OCI-AML-3 = assay: as above; assay type: cell-based, human; conditions: for Combination Index of Compound 1 + agent: OCI-AML-3, CI scores across all 3 ratios averaged
Experimental: as §1, §2, §3, §4

MV-4-11 = assay: as above; assay type: cell-based, human; conditions: for Combination Index of Compound 1 + agent: MV-4-11, CI scores across all 3 ratios averaged
Experimental: as §1, §2, §3, §4

MV4; 11 cell line = assay: Combination treatments, Cell Titer-Glo viability after 72 hours; assay type: cell-based, human
Experimental: (§5) The additional therapeutic agents for this example were azacitidine (Cayman Chemical Cat No. 11164), decitabine (Sigma Cat No. A3656) and venetoclax (InvivoChem Cat. No. V0001).
(§6) Cell Culture: Three human acute myeloid leukemia tumor cell lines were used in this study: HL60, MV4;11 and MOLM-13. HL60 and MV4;11 were grown in IMDM base media with 20% and 10% FBS, respectively. MOLM-13 was grown in RPMI 1640 base media with 20% FBS. All culture media contained 2 mM glutamine, 100 units/mL sodium penicillin G, […] gentamicin, and 100 μg/mL streptomycin sulfate. The tumor cells were cultured in tissue culture flasks in a humidified incubator at 37° C., in an atmosphere of 5% C02 and 95% air. Assay: Tumor cells were seeded in duplicate in a volume of 100 μL/well of media into 96-well micro-culture plates at initial densities low enough to allow for several population doublings (typically three to five) during the indicated incubation period. After a 24 hour incubation, test agents were added to each well. After 72 hours of culture with test articles, cell viability was determined using the Cell Titer-Glo® (Promega G7571) assay. Briefly, Cell Titer-Glo® (Promega G7571) reagents were equilibrated at room temperature for 30 minutes; 100 μL per well was added at endpoint (72 hours). Plates were gently shaken for two minutes and then incubated at room temperature for ten minutes prior to reading luminescence on the BMG Clariostar Plus microplate reader.
(§7) An IC50 ratio for each combination was calculated from the ratio of the combination IC50 as compared to the applicable no fixed agent (vehicle) control.

MOML-13 cell line = assay: as above; assay type: cell-based, human
Experimental: as §5, §6, §7

HL-60 cell line = assay: as above; assay type: cell-based, human
Experimental: as §5, §6, §7

[1] = test system: human A549 lung adenocarcinoma xenograft tumors; assay: Tumor growth of A549 xenograft tumors; assay type: in vivo, mice; conditions: 55 mg/kg QD4/3 off
Excerpt: (§8) Group 1 received PO 4-days on, 3-days off doses (QD4/3 off) of vehicle.

[2] = 55 mg/kg QD4/3 off
Excerpt: as §8

[3] = Adverse events and visual impairment in Phase I subjects; conditions: at equivalent plasma exposure of Compound 1 and CB-5083
[4] = MV4, 11, fixed agent Compound 1 - 185 nM
[5] = MOML-13, fixed agent Compound 1 - 75 nM
[6] = HL-60, fixed agent Compound 1 - 210 nM

SMILES | Combination Index of Compound 1 + agent (MOML-13) | Combination Index of Compound 1 + agent (OCI-AML-3) | Combination Index of Compound 1 + agent (MV-4-11) | other results
COCC1(CO)C(=O)C2CCN1CC2 (stereo not shown) [APR-246] | 1.228 | 1.279 | 1.285 | 
C[C@@H]1COCCN1c1cc(C2([S@](C)(=N)=O)CC2)nc(-c2cc[nH]c3nccc2-3)n1 [AZD6738] | 1.338 | 1.421 | 1.228 | 
CN(C)CCCOc1ccc(-c2ccc3ncc4c(c3c2)n(C2CCOCC2)c(=O)n4C)cn1 [AZDO156] | 1.293 | 1.159 | 1.122 | 
Nc1ncn([C@@H]2O[C@H](CO)[C@@H](O)[C@H]2O)c(=O)n1 [Azacitidine, azacitidine, reference compound] |  |  |  | IC50 (MV4; 11 cell line; Homo sapiens, 72 h, MV4, 11, no fixed agent (vehicle), read-out: IC50): 1100 nM; Combination: Monotherapy IC50 Ratio (MV4; 11 cell line; [4]): 0.10; IC50 (MOML-13 cell line; Homo sapiens, 72 h, MOML-13, no fixed agent (vehicle), read-out: IC50): 445 nM; Combination: Monotherapy IC50 Ratio (MOML-13 cell line; [5]): 0.28; Combination: Monotherapy IC50 Ratio (HL-60 cell line; [6]): 0.82; IC50 (HL-60 cell line; Homo sapiens, 72 h, HL-60, no fixed agent (vehicle), read-out: IC50): 2.4 µM
Cc1cc2c(C(N)=O)cccc2n1-c1nc2c(c(NCc3ccccc3)n1)COCC2 [CB-5083, 1-[7,8-dihydro-4-[(phenylmethyl)amino]-5H-pyrano[4,3-d]pyrimidin-2-yl]-2-methyl-1H-indole-4-carboxamide, reference compound] |  |  |  | TGI [1]: 33%; drug-related deaths [2]: no drug-related deaths; symptoms of visual impairment or other visual adverse events [3]: visual adverse events as seen
Nc1ncn([C@H]2C[C@H](O)[C@@H](CO)O2)c(=O)n1 [Decitabine, decitabine, reference compound] |  |  |  | IC50 (MV4; 11 cell line; Homo sapiens, MV4-11, 72 h): 390 nM; Combination: Monotherapy IC50 Ratio (MV4; 11 cell line; [4]): 0.02; IC50 (MV4; 11 cell line; [4]): 7.1 nM; IC50 (MOML-13 cell line; Homo sapiens, 72 h): 10.8 nM; Combination: Monotherapy IC50 Ratio (MOML-13 cell line; [5]): 0.60; IC50 (MOML-13 cell line; [5]): 6.5 nM; Combination: Monotherapy IC50 Ratio (HL-60 cell line; [6]): 0.76; IC50 (HL-60 cell line; [6]): 4.03 µM; IC50 (HL-60 cell line; Homo sapiens, HL-60, 72 h): 5.29 µM
CCc1nc(C(N)=O)c(Nc2ccc(N3CCC(N4CCN(C)CC4)CC3)c(OC)c2)nc1NC1CCOCC1 [Gilteritinib] | 1.266 | 1.514 | 0.799 | 
CC(C)C[C@H](NC(=O)CNC(=O)c1cc(Cl)ccc1Cl)B(O)O [Ixazomib] | 1.413 | 1.438 | 1.546 | action of the combination with Compound 1 (synergistic, additive, antagonistic) (MOML-13): antagonistic; action of the combination with Compound 1 (synergistic, additive, antagonistic) (OCI-AML-3; OCI-AML-3 (FLT3 wildtype)): antagonistic; action of the combination with Compound 1 (synergistic, additive, antagonistic) (MV-4-11; MV-4-11 (FLT3 homozygous mutant)): antagonistic
COc1ccc([C@@H](O)c2cc(-c3ncnc4cc(N5CCOCC5)ccc34)c(F)cc2Cl)nn1 [Nedisertib] | 1.272 | 1.170 | 0.986 | 
NS(=O)(=O)OC[C@@H]1C[C@@H](n2ccc3c(N[C@H]4CCc5ccccc54)ncnc32)C[C@@H]1O [Pevonedistat] | 1.120 | 1.186 | 1.302 | 
Cn1ncnc1[C@H]1c2n[nH]c(=O)c3cc(F)cc(c23)N[C@@H]1c1ccc(F)cc1 [Talazoparib] | 0.529 | 0.986 | 0.769 | action of the combination with Compound 1 (synergistic, additive, antagonistic) (MOML-13): strong synergy
CC1(C)CCC(CN2CCN(c3ccc(C(=O)NS(=O)(=O)c4ccc(NCC5CCOCC5)c([N+](=O)[O-])c4)c(Oc4cnc5[nH]ccc5c4)c3)CC2)=C(c2ccc(Cl)cc2)C1 [Venetoclax] | 0.730 | 0.855 | 0.819 | 
